Where a name gives a salt, the structure may show the parent alone.
Molecular target: SARS-CoV-2 Mac1 (Severe acute respiratory syndrome coronavirus 2, UniProt P0DTD1)
Test: biochemical
Conditions: for inhibition at 100 µM: read-out: %inhibition; for %inhibition: 100 µM, inhibitor

CC(=O)OCC(=O)[C@H]1CC[C@H]2[C@@H]3CCC4=CC(=O)CC[C@]4(C)[C@H]3CC[C@]12C [Deoxycorticosterone acetate]
inhibition at 100 µM: 3.46%

CNCCCN1c2ccccc2CCc2ccccc21 [Desipramine Hydrochloride]
inhibition at 100 µM: 15.3%

N=C(N)NCCC[C@@H](NC(=O)[C@@H]1CCCN1C(=O)[C@@H]1CSSCCC(=O)N[C@@H](Cc2ccc(O)cc2)C(=O)N[C@@H](Cc2ccccc2)C(=O)N[C@@H](CCC(N)=O)C(=O)N[C@@H](CC(N)=O)C(=O)N1)C(=O)NCC(N)=O [Desmopressin Acetate]
inhibition at 100 µM: 8.25%

C#C[C@]1(O)CC[C@H]2[C@@H]3CCC4=CCCC[C@@H]4[C@H]3C(=C)C[C@@]21CC [Desogestrel]
inhibition at 100 µM: 0%

CC1(C)O[C@@H]2C[C@H]3[C@@H]4CCC5=CC(=O)C=C[C@]5(C)[C@H]4[C@@H](O)C[C@]3(C)[C@]2(C(=O)CO)O1 [Desonide]
inhibition at 100 µM: 17.1%

CN(C)CC(c1ccc(O)cc1)C1(O)CCCCC1 (stereo not shown) [Desvenlafaxine Succinate]
inhibition at 100 µM: 7.7%

CN(C)CC(c1ccc(O)cc1)C1(O)CCCCC1 (stereo not shown) [Desvenlafaxine]
%inhibition: 6.836%

Cc1cccc(Cc2c[nH]cn2)c1C [Detomidine HCl]
inhibition at 100 µM: 0%

C[C@@H]1C[C@H]2[C@@H]3CCC4=CC(=O)C=C[C@]4(C)[C@@]3(F)[C@@H](O)C[C@]2(C)[C@@]1(O)C(=O)CO [Dexamethasone (DHAP)]
%inhibition: 0%

CC(=O)OCC(=O)[C@@]1(O)[C@H](C)C[C@H]2[C@@H]3CCC4=CC(=O)C=C[C@]4(C)[C@@]3(F)[C@@H](O)C[C@@]21C [Dexamethasone Acetate]
inhibition at 100 µM: 0%

Cc1c(OCC(F)(F)F)ccnc1C[S@@+]([O-])c1nc2ccccc2[nH]1 [Dexlansoprazole]
inhibition at 100 µM: 13.9%

Cc1cccc([C@H](C)c2c[nH]cn2)c1C [Dexmedetomidine HCl]
%inhibition: 0%

Cc1cccc([C@H](C)c2c[nH]cn2)c1C [Dexmedetomidine]
%inhibition: 18.38%

C[C@@H](CN1CC(=O)NC(=O)C1)N1CC(=O)NC(=O)C1 [Dexrazoxane HCl (ICRF-187, ADR-529)]
%inhibition: 32.25%

C[C@@H](CN1CC(=O)NC(=O)C1)N1CC(=O)NC(=O)C1 [Dexrazoxane]
%inhibition: 12.37%

COc1ccc2c(c1)[C@]13CCCC[C@@H]1[C@H](C2)N(C)CC3 [Dextromethorphan hydrobromide hydrate]
inhibition at 100 µM: 8.58%

OC[C@H]1OC(O)[C@H](O)[C@@H](O)[C@@H]1O (stereo partly shown) [Dextrose]
inhibition at 100 µM: 0%

CC(=O)Oc1cccc2c1C(=O)c1c(OC(C)=O)cc(C(=O)O)cc1C2=O [Diacerein]
inhibition at 100 µM: 3.21%

C=C=CCNC(=O)c1ccc(F)cc1 [Diastase]
inhibition at 100 µM: 0%

CC(=O)Nc1c(I)c(NC(C)=O)c(I)c(C(=O)O)c1I [Diatrizoate sodium]
inhibition at 100 µM: 7.54%

CC1=Nc2ccc(Cl)cc2S(=O)(=O)N1 [Diazoxide]
inhibition at 100 µM: 0%

CCCC(=O)Nc1ncnc2c1ncn2[C@@H]1O[C@@H]2COP(=O)(O)O[C@H]2[C@H]1OC(=O)CCC [Dibutyryl-cAMP (Bucladesine)]
inhibition at 100 µM: 4.86%

Oc1ccc(Cl)cc1Cc1cc(Cl)ccc1O [Dichlorophene]
inhibition at 100 µM: 15%

NS(=O)(=O)c1cc(Cl)c(Cl)c(S(N)(=O)=O)c1 [Dichlorphenamide (Diclofenamide)]
inhibition at 100 µM: 3.01%

N#CC(c1ccc(Cl)cc1)c1c(Cl)cc(-n2ncc(=O)[nH]c2=O)cc1Cl (stereo not shown) [Diclazuril]
inhibition at 100 µM: 0%

O=C(O)Cc1ccccc1Nc1c(Cl)cccc1Cl [Diclofenac Diethylamine]
%inhibition: 0%

O=C(O)Cc1ccccc1Nc1c(Cl)cccc1Cl [Diclofenac Potassium]
%inhibition: 7.108%

O=C(O)Cc1ccccc1Nc1c(Cl)cccc1Cl [Diclofenac Sodium]
%inhibition: 15.35%

Cc1onc(-c2c(Cl)cccc2Cl)c1C(=O)N[C@@H]1C(=O)N2[C@@H]1SC(C)(C)[C@@H]2C(=O)O [Dicloxacillin Sodium]
inhibition at 100 µM: 10.8%

O=c1oc2ccccc2c(O)c1Cc1c(O)c2ccccc2oc1=O [Dicoumarol]
inhibition at 100 µM: 13.4%

C[C@]12CCC3=C4CCC(=O)C=C4CC[C@H]3[C@@H]1CC[C@@]2(O)CC#N [Dienogest]
inhibition at 100 µM: 22%

CCN(CC)C(=O)N1CCN(C)CC1 [Diethylcarbamazine citrate]
inhibition at 100 µM: 0%

CN1CCN(c2cc3c(cc2F)c(=O)c(C(=O)O)cn3-c2ccc(F)cc2)CC1 [Difloxacin HCl]
inhibition at 100 µM: 2.61%

O=C(O)c1cc(-c2ccc(F)cc2F)ccc1O [Diflunisal]
inhibition at 100 µM: 0.967%

CCCC(=O)O[C@]1(C(=O)COC(C)=O)CC[C@H]2[C@@H]3C[C@H](F)C4=CC(=O)C=C[C@]4(C)[C@@]3(F)[C@@H](O)C[C@@]21C [Difluprednate]
inhibition at 100 µM: 22.2%

C[C@H]1O[C@@H](O[C@H]2[C@@H](O)C[C@H](O[C@H]3[C@@H](O)C[C@H](O[C@H]4CC[C@@]5(C)[C@H](CC[C@@H]6[C@@H]5C[C@@H](O)[C@]5(C)[C@@H](C7=CC(=O)OC7)CC[C@]65O)C4)O[C@@H]3C)O[C@@H]2C)C[C@H](O)[C@@H]1O [Digoxin]
inhibition at 100 µM: 13.2%

N/N=c1\[nH][nH]/c(=N\N)c2ccccc12 [Dihydralazine sulphate]
inhibition at 100 µM: 45.1%

C[C@H]1[C@@H](O)O[C@@H]2O[C@@]3(C)CC[C@H]4[C@H](C)CC[C@@H]1[C@@]24OO3 [Dihydroartemisinin (DHA)]
inhibition at 100 µM: 0%

CN[C@@H]1[C@H](O[C@H]2[C@H](O[C@H]3[C@H](O)[C@@H](O)[C@H](N=C(N)N)[C@@H](O)[C@@H]3N=C(N)N)O[C@@H](C)[C@]2(O)CO)O[C@@H](CO)[C@H](O)[C@H]1O [Dihydrostreptomycin sulfate]
inhibition at 100 µM: 6.08%

Oc1c(I)cc(I)c2cccnc12 [Diiodohydroxyquinoline]
inhibition at 100 µM: 6.28%

COc1ccc([C@@H]2Sc3ccccc3N(CCN(C)C)C(=O)[C@@H]2OC(C)=O)cc1 [Diltiazem HCl]
inhibition at 100 µM: 25.7%

Cc1ccc2c(c1)[C@]13CCCC[C@@H]1[C@H](C2)N(C)CC3 [Dimemorfan phosphate]
inhibition at 100 µM: 0%

O=S(=O)(O)CCSSCCS(=O)(=O)O [Dimesna]
inhibition at 100 µM: 22.1%

COC(=O)/C=C/C(=O)OC [Dimethyl Fumarate]
inhibition at 100 µM: 23.8%

Cc1c(C(N)=O)cc([N+](=O)[O-])cc1[N+](=O)[O-] [Dinitolmide]
inhibition at 100 µM: 6.05%

CCCCC[C@H](O)/C=C/[C@@H]1[C@@H](C/C=C\CCCC(=O)O)[C@@H](O)C[C@H]1O [Dinoprost tromethamine]
inhibition at 100 µM: 32.6%

COc1ccc(-c2cc(=O)c3c(O)cc(O[C@@H]4O[C@H](CO[C@@H]5O[C@@H](C)[C@H](O)[C@@H](O)[C@H]5O)[C@@H](O)[C@H](O)[C@H]4O)cc3o2)cc1O [Diosmin]
inhibition at 100 µM: 11.9%

O=C(Nc1ccccc1)OCC(CN1CCCCC1)OC(=O)Nc1ccccc1 (stereo not shown) [Diperodon HCl]
inhibition at 100 µM: 0.82%

C[N+]1(C)CCC(=C(c2ccccc2)c2ccccc2)CC1 [Diphemanil Methylsulfate]
inhibition at 100 µM: 0%

OC(CCCN1CCCCC1)(c1ccccc1)c1ccccc1 [Diphenidol HCl]
inhibition at 100 µM: 3%

CN1CCC(OC(c2ccccc2)c2ccccc2)CC1 [Diphenylpyraline HCl]
inhibition at 100 µM: 0%

OCCN(CCO)c1nc(N2CCCCC2)c2nc(N(CCO)CCO)nc(N3CCCCC3)c2n1 [Dipyridamole]
inhibition at 100 µM: 26.7%
